The record followed here is US11414378B2, “Anti-fungals compounds targeting the synthesis of fungal sphingolipids” (THE RESEARCH FOUNDATION FOR THE STATE UNIVERSITY OF NEW YORK, priority 2017, dated 2022).

Converted amounts (≈) assume the structure as drawn.

The test system of one data set is A549. The experiment in a line: A549 toxicity. The class given is cell-based. The note with it: Tables 1-3.
Data set [1] concerns C. neoformans. Briefly: In vitro susceptibility testing (MIC / IC80). The note with it: Cryptococcus neoformans; Tables 1-3. The class given is cell-based, Cryptococcus neoformans. How it is done: Minimal inhibitory concentration (MIC) was determined following the methods of the Clinical Laboratory Standards Institutes (CLSI) with modifications. MIC studies used either RPMI or YNB medium (pH 7.0, 0.2% glucose) buffered with HEPES. […] The compound was serially diluted from 32 to 0.03 μg/ml or 19 to 0.02 μg/ml respectively in a 96 well plate with the respective medium. The yeast inoculum was prepared as described in the CLSI protocol M27-A3 guidelines. Plates were incubated at 37° C. and in the presence of 5% CO2 for 24-96 hours. Against all fungal isolates used in the initial susceptibility screen, the MICs were determined as the lowest concentration of the drug that inhibited 50% of growth compared to the control. MIC80 and MIC100, whose drug concentrations inhibited 80% and 100% growth compared to the control respectively, were also determined. For antibacterial activity, E. coli DH5a and P. aeruginosa PA14 were grown overnight in Luria Bertani (LB) broth at 30° C. The cells were washed with PBS and counted. Then, 300 μL from 2×10^8 cells/mL was spreaded onto LB agar plate using a hockey stick glass spreader. The plate was dried, and wells were punched out using a cut tip. Fifty microliters of different drug concentration was added to the well. The plate was then incubated at 30° C. for 24 hours.

In a further data set the test system is HepG2. Briefly: HepG2 toxicity. The class given is cell-based. Particulars: Tables 1-3.
For the next data set, the system named is C. neoformans cells. Briefly: In vitro killing activity (K100) assay. The class given is cell-based, Cryptococcus neoformans. Particulars: minimum concentration that kills 100% of C. neoformans cells in 48 h; for MFC: Cryptococcus neoformans. How it is done:
C. neoformans cells from a culture grown overnight were washed in PBS and resuspended in YNB buffered with HEPES at pH 7.4. The cells were counted, and 2×10^4 cells were incubated with different concentration of compounds in a final volume of 10 ml with a final concentration of 0.5% DMSO. The tubes were then incubated at 37° C. with 5% CO2 on a rotary shaker at 200 rpm. Aliquots were taken at time points and diluted, and […] were plated onto Yeast Extract-Peptone-Dextrose (YPD) plates. YPD plates were incubated in a 30° C. incubator and after 48 h, the numbers of CFU were counted and recorded.

Data set [2] deals with C. neoformans. The experiment in a line: In vitro susceptibility (MIC80) assay. Format: cell-based. The note with it: Cryptococcus neoformans; lowest concentration that inhibited 80% of growth; YNB pH 7.0, HEPES, 37° C., 5% CO2. How it is done:
MICs was determined following the methods of the Clinical and Laboratory Standards Institutes (CLSI) with modifications. Yeast Nitrogen Base (YNB) medium (pH 7.0, 0.2% glucose) buffered with HEPES was used for MIC studies. […] The compound was serially diluted from 16 to 0.03 μg/ml, in a 96-well plate. The inoculum was prepared as described in the CLSI protocol M27A3 guidelines. The plates were incubated at 37° C. with 5% CO2 for 24 to 72 h and the optical density was measure at 450 nm. The MICs was determined as the lowest concentration of the compound that inhibited 80% of growth compared to the control.

In the data set on A549, `O=C(N/N=C/c1cc(Br)ccc1O)c1cc(Br)ccc1Br` displayed an A549 of 16 µg/mL. In addition, the IC80 (as a rule, the point of the concentration-response curve where the effect stands at 80%) in the data set on C. neoformans [1] was determined as 0.25 µg/mL (≈ 0.524 µM). Besides, the HepG2 with HepG2 was found to be 32 µg/mL.
The like results for `O=C(N/N=C/c1cc(Cl)ccc1O)c1cc(Br)ccc1Br` were, in that order, 59 µg/mL, 0.25 µg/mL (≈ 0.578 µM) and 32 µg/mL.
For `O=C(N/N=C/c1c(O)ccc2ccccc12)c1ccc(Br)cc1Br`, in that order: 16 µg/mL, 0.12 µg/mL (≈ 0.268 µM) and greater than 32 µg/mL.
`Cc1ccc(O)c(/C=N/NC(=O)c2cc(Br)cc(Br)c2O)c1` [drawing 66] came in with an A549 in the data set on A549 of 4 µg/mL. In addition, in the data set with C. neoformans [1], it took 0.25 µg/mL (≈ 0.584 µM) to reach the 80% level (IC80). This compound returned a HepG2 with HepG2 of 8 µg/mL.
For `O=C(N/N=C/c1cc(Cl)cc(Cl)c1O)c1ccc(Br)cc1Br`, in that order: greater than 64 µg/mL, 1 µg/mL (≈ 2.14 µM) and 64 µg/mL.
As for `Cc1ccc(O)c(/C=N/NC(=O)c2ccc(Br)cc2Br)c1`, in the data set on A549, the A549 was found to be 32 µg/mL. For the same compound, the IC80 in the data set on C. neoformans [1] turned out to be 1 µg/mL (≈ 2.43 µM). This compound displayed a HepG2 in the data set on HepG2 of 16 µg/mL.
For `O=C(N/N=C/c1cc(Br)ccc1O)c1ccc(Br)cc1Br`, in that order: greater than 32 µg/mL, 0.12 µg/mL (≈ 0.252 µM) and 59 µg/mL.
For `Cc1ccc(O)c(/C=N/NC(=O)c2cc(Br)ccc2Br)c1`, in that order: 32 µg/mL, 1 µg/mL (≈ 2.43 µM) and 32 µg/mL.
The like results for `O=C(N/N=C/c1ccc(Br)cc1O)c1cc(Br)ccc1Br` were, in that order, 32 µg/mL, 0.12 µg/mL (≈ 0.252 µM) and 16 µg/mL.
With `O=C(N/N=C/c1cc(Cl)cc(Cl)c1O)c1cc(Br)ccc1Br`, the A549 in the data set with A549 came to 32 µg/mL. For the same compound, the 80% effect concentration (IC80) with C. neoformans [1] is 0.5 µg/mL (≈ 1.07 µM). Also, the HepG2 with HepG2 stood at 32 µg/mL.
The compound `O=C(N/N=C/c1ccc(Br)cc1O)c1ccc(Br)cc1Br` returned an A549 in the data set on A549 greater than 32 µg/mL. Further, the IC80 with C. neoformans [1] came to 0.06 µg/mL (≈ 0.126 µM). The HepG2 in the data set on HepG2 was greater than 64 µg/mL.
Consider `O=C(N/N=C/c1ccc(Br)cc1O)c1cccc(F)c1` [Compound A28, 3-Fluoro-N′-(4-bromo-2-hydroxybenzylidene)benzohydrazide], for which the MFC in the data set with C. neoformans cells is greater than 2 µg/mL. Also, the MIC80 (commonly an inhibitory concentration at the 80% level, which refers to growth in some studies and to a panel of isolates in others) in the data set on C. neoformans [2] came to 0.5 µg/mL (≈ 1.48 µM).
Compound `O=C(N/N=C/c1cc(Br)cc(Br)c1O)c1ccc(Br)s1` [Compound H4, 5-Bromo-N′-(3,5-dibromo-2-hydroxybenzylidene)thiophene-2-carbohydrazide] returned an MFC in the data set on C. neoformans cells greater than 0.25 µg/mL. Also, in the data set with C. neoformans [2], the MIC80 is 0.06 µg/mL (≈ 0.124 µM).
As for `O=C(N/N=C/c1c(O)ccc2ccccc12)c1cc(Br)ccc1Br`, in the data set with A549, the A549 came out at 32 µg/mL. For the same compound, the concentration for an effect of 80% (IC80) with C. neoformans [1] worked out at 0.25 µg/mL (≈ 0.558 µM). Also, the HepG2 with HepG2 came out at 16 µg/mL.
Consider `O=C(N/N=C/c1cc(Br)ccc1O)c1ccc(Br)c(Br)c1` [Compound A33, 3,4-Dibromo-N′-(5-bromo-2-hydroxybenzylidene)benzohydrazide], for which, in the data set on C. neoformans cells, the MFC came out at 2 µg/mL (≈ 4.19 µM). The compound further registered an MIC80 against C. neoformans [2] of 0.25 µg/mL (≈ 0.524 µM).
The like results for `O=C(N/N=C/c1cc(OC(F)(F)F)ccc1O)c1ccc(Br)cc1Br` [Compound A3, 2,4-Dibromo-N′-(2-hydroxy-5-trifluoromethoxybenzylidene)benzohydrazide] were, in that order, 2 µg/mL (≈ 4.15 µM) and 0.25 µg/mL (≈ 0.519 µM).
Take `O=C(N/N=C/c1cc(F)ccc1O)c1ccc(Br)cc1` [Compound A2, 4-Bromo-N′-(5-fluoro-2-hydroxybenzylidene)benzohydrazide]: in the data set with C. neoformans cells, the MFC is greater than 4 µg/mL. The same compound came in with an MIC80 in the data set on C. neoformans [2] of 1 µg/mL (≈ 2.97 µM).
For `O=C(N/N=C/c1cc(Br)ccc1O)c1ccc(OC(F)(F)F)cc1F` [Compound A12, 2-Fluoro-4-trifluoromethoxy-N′-(5-bromo-2-hydroxybenzylidene)benzohydrazide], in that order: 0.5 µg/mL (≈ 1.19 µM) and 0.5 µg/mL (≈ 1.19 µM).
For `Cc1ccc(O)c(/C=N/NC(=O)c2ccc(Br)c(Br)c2)c1` [Compound A34, 3,4-Dibromo-N′-(2-hydroxy-5-methylbenzylidene)benzohydrazide], in that order: greater than 1 µg/mL and 0.12 µg/mL (≈ 0.291 µM).
The like results for `O=C(N/N=C/c1c(O)ccc2ccccc12)c1ccc(Br)c(Br)c1` [Compound A32, 3,4-Dibromo-N′-(2-hydroxy-1-naphthylidene)benzohydrazide] were, in that order, greater than 1 µg/mL and 0.12 µg/mL (≈ 0.268 µM).
Compound `O=C(N/N=C/c1c(O)ccc2ccccc12)c1cc(Br)cc(Br)c1` [Compound A37, 3,5-Dibromo-N′-(2-hydroxy-1-naphthylidene)benzohydrazide] showed an MFC in the data set with C. neoformans cells of 0.5 µg/mL (≈ 1.12 µM). The MIC80 against C. neoformans [2] came to 0.25 µg/mL (≈ 0.558 µM).
`O=C(N/N=C/c1cc(Br)cc(Br)c1O)c1ccc(OC(F)(F)F)cc1F` [Compound A13, 2-Fluoro-4-trifluoromethoxy-N′-(3,5-dibromo-2-hydroxybenzylidene)-benzohydrazide] returned an MFC in the data set on C. neoformans cells of 0.5 µg/mL (≈ 1 µM). In addition, the MIC80 in the data set on C. neoformans [2] turned out to be 0.06 µg/mL (≈ 0.12 µM).
The like results for `Cc1ccc(O)c(/C=N/NC(=O)c2cc(Br)cc(Br)c2)c1` [Compound A41, 3,5-Dibromo-N′-(2-hydroxy-5-methylbenzylidene)benzohydrazide] were, in that order, 1 µg/mL (≈ 2.43 µM) and 0.5 µg/mL (≈ 1.21 µM).
For `O=C(N/N=C/c1cc(Br)ccc1O)c1cc(Br)cc(Br)c1` [Compound A36, 3,5-Dibromo-N′-(5-bromo-2-hydroxybenzylidene)benzohydrazide], in that order: greater than 5 µg/mL and 0.06 µg/mL (≈ 0.126 µM).
Consider `O=C(N/N=C/c1cc(Cl)ccc1O)c1cccc(F)c1F`, for which the A549 with A549 turned out to be 72 µg/mL. Also, the IC80 in the data set with C. neoformans [1] amounted to 1 µg/mL (≈ 3.22 µM). This compound displayed a HepG2 with HepG2 of 32 µg/mL.
For `O=C(N/N=C/c1ccc(Br)cc1O)c1cccc(Br)c1`, in that order: greater than 32 µg/mL, 0.5 µg/mL (≈ 1.26 µM) and 9 µg/mL.
`O=C(N/N=C/c1cc(Br)cc(Br)c1O)c1cc(Br)co1` [Compound H13, 4-bromo-N′-(3,5-dibromo-2-hydroxybenzylidene)furan-2-carbohydrazide]: the MFC with C. neoformans cells was greater than 0.25 µg/mL. Further, in the data set with C. neoformans [2], the MIC80 was 0.06 µg/mL (≈ 0.129 µM).
The compound `O=C(N/N=C/c1cc(Cl)ccc1O)c1ccc(Br)cc1Br` came in with an A549 in the data set with A549 of 64 µg/mL. It took 0.25 µg/mL (≈ 0.578 µM) to reach the 80% level with C. neoformans [1] (IC80). In addition, the HepG2 with HepG2 came to 64 µg/mL.
Regarding `O=C(N/N=C/c1cc(Br)ccc1O)c1cc(Br)co1` [Compound H11, 4-Bromo-N′-(5-bromo-2-hydroxybenzylidene)furan-2-carbohydrazide], the MFC with C. neoformans cells is greater than 1 µg/mL. Besides, the MIC80 in the data set on C. neoformans [2] is 0.25 µg/mL (≈ 0.644 µM).
For `O=C(N/N=C/c1cc(Cl)cc(Cl)c1O)c1cccc(Br)c1Br` [Compound A43, 2,3-Dibromo-N′-(3,5-dichloro-2-hydroxybenzylidene)benzohydrazide], in that order: 1 µg/mL (≈ 2.14 µM) and 1 µg/mL (≈ 2.14 µM).
`O=C(N/N=C/c1cc(OC(F)(F)F)ccc1O)c1ccc(Br)cc1` [Compound A1, 4-Bromo-N′-(2-hydroxy-5-trifluoromethoxybenzylidene)benzohydrazide]: the MFC with C. neoformans cells was greater than 1 µg/mL. Moreover, the MIC80 in the data set with C. neoformans [2] is 0.25 µg/mL (≈ 0.62 µM).
`O=C(N/N=C/c1cc(Br)cc(Br)c1O)c1cccc(OC(F)F)c1` [Compound A6, 3-Difluoromethoxy-N′-(3,5-dibromo-2-hydroxybenzylidene)benzohydrazide]: the MFC in the data set on C. neoformans cells was determined as 0.5 µg/mL (≈ 1.08 µM). In the data set on C. neoformans [2], this compound came in with an MIC80 of 0.12 µg/mL (≈ 0.259 µM).
On to `Cc1ccc(O)c(/C=N/NC(=O)c2cc(Br)cc(Br)c2O)c1` [Compound A17, 3,5-Dibromo-2-hydroxy-N′-(5-methyl-2-hydroxyphenylmethylidene)benzohydrazide], for which the MFC against C. neoformans cells came out at 0.25 µg/mL (≈ 0.584 µM). This compound had an MIC80 against C. neoformans [2] of 0.25 µg/mL (≈ 0.584 µM).
In the case of `C#Cc1ccc(C(=O)N/N=C/c2cc(Br)cc(Br)c2O)cc1` [Compound A46, 4-Ethynyl-N′-(3,5-dibromo-2-hydroxybenzylidene)benzohydrazide], the “K100* (μg/mL)” value in the data set on C. neoformans cells is “Fungistatic”. This compound displayed an MIC80 against C. neoformans [2] of 0.12 µg/mL (≈ 0.284 µM).
As for `O=C(N/N=C/c1cc(Br)cc(Br)c1O)c1ccc(CF)cc1` [Compound A44, 4-Fluromethyl-N′-(3,5-dibromo-2-hydroxybenzylidene)benzohydrazide], in the data set on C. neoformans cells, the MFC turned out to be 0.5 µg/mL (≈ 1.16 µM). The compound also yielded an MIC80 against C. neoformans [2] of 0.5 µg/mL (≈ 1.16 µM).
